Values joined by “and” are separate entries in the source; they are usually repeats but may differ in a detail not shown here. Identical values can stand only once. Counter-ions that a name gives are not always drawn. Like-named read-outs stand apart in the source and are kept apart here.
Columns and labels:
[1] = Overnight / elevated RH stress of the crystalline salts; type: physicochemical; settings: overnight / elevated relative humidity stress
[2] = Systemic exposure and pharmacokinetics after single oral gavage dose of 200 mg/kg in fasted male SD rats; type: in vivo, Sprague Dawley (SD) rats; settings: for Fold difference in plasma concentration compared to micronized free-base form: 30 hours post-dose; for Fold difference in plasma concentration compared to micronized free-base form / Increase of systemic drug exposure in AUC0-t compared with micro MBX-2982 (free base): male SD rats; for Increase of systemic drug exposure in AUC0-t compared with micro MBX-2982 (free base): equivalent amounts
Method: Two studies were conducted in order to compare the systemic exposure and pharmacokinetics (PK) of microcrystalline MBX-2982 and salt forms of MBX-2982 in fasted male Sprague Dawley (SD) rats following single oral gavage (PO) doses of 200 mg/kg. Four salt foms of MBX-2982 were investigate in the studies. The tested salts were HCl Form I, HCl salt Form II, mesylate salt and the tosylate salt.
Preparation of samples was performed by solvent precipitation of plasma proteins in a 1 mL/well 96-well plate. Standards were prepared by spiking 10 μL of blank plasma with 10 μL of standard solution (acetonitrile containing MBX-2982 at 0.01, 0.02, 0.05, 0.1, 0.2, 0.5, 1, 2, 5, 10, 20, 50 and 100 μg/mL) and 300 μL of 0.1% formic acid in acetonitrile containing 0.2 μg/mL internal standard. Plasma samples were prepared by adding 10 μL of plasma sample, 10 μL of acetonitrile, and 300 μL of 0.2 μg/mL internal standard in 0.1% formic acid in acetonitrile. After addition of the organic solvents, all samples were vortexed briefly and centrifuged at 3600 rpm for 10 minutes. Some of the samples were diluted 1.3 to 2-fold with blank plasma. An aliquot of the supernatant (25 μL) was transfer to a 1 mL/well 96-well plate and mixed with 200 μL water/ACN (50/50, v/v) and injected into the HPLC.
The suspensions for microcrystalline MBX-2982 (free base) and salt forms of MBX-2982 were prepared in 1% carboxymethylcellulose and 2% tween 80 in water (w/w/v).
Five groups of animals were given microcrystalline and salt forms suspension doses of MBX-2982 orally at 200 mg/kg, respectively. Food was withheld the night before dose and returned nine hours after dosing. Blood samples were collected at 0.25, 0.5, 1, 2, 4, 6, 9, 24, 30 and 48 h post dose. MBX-2982 plasma concentration from these samples was analyzed by a non-validated high performance liquid chromatography in conjunction with mass spectrometry (LC-MS/MS) method.
Plasma concentration-time data for individual animals were analyzed using WinNonlin software (Professional, version 5.0.1; Pharsight Corp.). A non-compartmental model (model 200) was used. Peak area ratios of MBX-2982 to internal standard and concentration were fitted to a quadratic equation (Calibration Curve) with 1/x weighting using a quadratic regression program in Analyst version 1.4.2 (Applied Biosystem Inc). The equations were then used to interpolate the concentrations of MBX-2982 in samples from peak area to internal standard ratio.
The following pharmacokinetic parameters were calculated: • 1) Cmax: Maximum (peak) plasma concentration • 2) Tmax: Time at which Cmax occurred • 3) t1/2: Terminal phase half-life • 4) AUC0-t: Area under the concentration-time curve from time 0 to last measurable concentration • 5) AUC0-inf: Area under the concentration-time curve from time 0 extrapolated to infinity

[3] = 0.5 h post dose, fasted male SD rats, PO 200 mg/kg, mean ± SD
[4] = 1 h post dose, fasted male SD rats, PO 200 mg/kg, mean ± SD
[5] = 2 h post dose, fasted male SD rats, PO 200 mg/kg, mean ± SD
[6] = 24 h post dose, fasted male SD rats, PO 200 mg/kg, mean ± SD
[7] = 30 h post dose, fasted male SD rats, PO 200 mg/kg, mean ± SD
[8] = 48 h post dose, fasted male SD rats, PO 200 mg/kg, mean ± SD
[9] = fasted male SD rats, single PO dose 200 mg/kg, mean ± SD
[10] = PO 200 mg/kg, listed as HCl form II, hydrochloride
[11] = fasted male SD rats, single PO dose 200 mg/kg, mean ± SD, hydrochloride

## CCc1cnc(N2CCC(c3nc(COc4ccc(-n5cnnn5)cc4)cs3)CC2)nc1 [Mesylate Salt, 5-ethyl-2-{4-[4-(4-tetrazol-1-yl-phenoxymethyl)-thiazol-2-yl]-piperidin-1-yl}-pyrimidine]
[1]
  Appearance of the material after RH stress: remained a free flowing powder
[2]; [3]
  Mean plasma concentration of MBX-2982: 8520 ± 975 ng/mL
[2]; [4]
  Mean plasma concentration of MBX-2982: 12200 ± 839 ng/mL
[2]; [5]
  Mean plasma concentration of MBX-2982: 18800 ± 904 ng/mL
[2]; 4 h post dose, fasted male SD rats, PO 200 mg/kg, mean ± SD
  Mean plasma concentration of MBX-2982: 26700 ± 4390 ng/mL
[2]; 6 h post dose, fasted male SD rats, PO 200 mg/kg, mean ± SD
  Mean plasma concentration of MBX-2982: 21800 ± 6480 ng/mL
[2]; 9 h post dose, fasted male SD rats, PO 200 mg/kg, mean ± SD
  Mean plasma concentration of MBX-2982: 18000 ± 5180 ng/mL
[2]; [6]
  Mean plasma concentration of MBX-2982: 476 ± 344 ng/mL
[2]; 24 h post dose, fasted male SD rats, PO 200 mg/kg, mean ± SD, listed as mesylate
  Mean plasma concentration of MBX-2982: 476 ng/mL
[2]; PO 200 mg/kg
  Fold difference in plasma concentration compared to micronized free-base form: 7 fold
  Increase of systemic drug exposure in AUC0-t compared with micro MBX-2982 (free base): 1.4 fold
[2]; [7]
  Mean plasma concentration of MBX-2982: 574 ± 641 ng/mL
[2]; 30 h post dose, fasted male SD rats, PO 200 mg/kg, mean ± SD, listed as mesylate
  Mean plasma concentration of MBX-2982: 574 ng/mL
[2]; [8]
  Mean plasma concentration of MBX-2982: 82 ± 82 ng/mL
[2]; [9]
  AUC0-24: 314 ± 65.7 µg·h/mL
  AUC0-inf: 323 ± 62.0 µg·h/mL
  AUC(0-t): 322 ± 63.6 µg·h/mL
  Cmax: 26700 ± 4460 ng/mL
  Tmax: 4.50 ± 1.00 h
  t1/2: 4.11 ± 1.29 h

## CCc1cnc(N2CCC(c3nc(COc4ccc(-n5cnnn5)cc4)cs3)CC2)nc1 [camsylate salt, 5-ethyl-2-{4-[4-(4-tetrazol-1-yl-phenoxymethyl)-thiazol-2-yl]-piperidin-1-yl}-pyrimidine]
[1]
  Appearance of the material after RH stress: remained a free flowing powder

## CCc1cnc(N2CCC(c3nc(COc4ccc(-n5cnnn5)cc4)cs3)CC2)nc1 [MBX-2982, 5-ethyl-2-{4-[4-(4-tetrazol-1-yl-phenoxymethyl)-thiazol-2-yl]-piperidin-1-yl}-pyrimidine]
[2]; [3]
  Mean plasma concentration of MBX-2982: 3890 ± 950 ng/mL
[2]; [4]
  Mean plasma concentration of MBX-2982: 6700 ± 1270 ng/mL
[2]; [5]
  Mean plasma concentration of MBX-2982: 11600 ± 1610 ng/mL
[2]; [6]
  Mean plasma concentration of MBX-2982: 260 ng/mL and 260 ± 280 ng/mL
[2]; [7]
  Mean plasma concentration of MBX-2982: 80 ng/mL and 80 ± 60 ng/mL
[2]; [8]
  Mean plasma concentration of MBX-2982: 160 ± 300 ng/mL
[2]; male, Sprague-Dawley, rat, plasma, po, 4 h post dose, fasted male SD rats, PO 200 mg/kg, mean ± SD, read-out: Mean plasma concentration of MBX-2982
  concentration at 4 h: 15800 ± 3740 ng/mL
[2]; male, Sprague-Dawley, rat, plasma, po, 6 h post dose, fasted male SD rats, PO 200 mg/kg, mean ± SD, read-out: Mean plasma concentration of MBX-2982
  concentration at 6 h: 15900 ± 4940 ng/mL
[2]; male, Sprague-Dawley, rat, plasma, po, 9 h post dose, fasted male SD rats, PO 200 mg/kg, mean ± SD, read-out: Mean plasma concentration of MBX-2982
  concentration at 9 h: 15000 ± 5900 ng/mL
[2]; male, Sprague-Dawley, rat, plasma, po, fasted male SD rats, single PO dose 200 mg/kg, mean ± SD
  half-life: 3.53 ± 0.7 h
[2]; male, Sprague-Dawley, rat, plasma, po, fasted male SD rats, single PO dose 200 mg/kg, mean ± SD, read-out: AUC0-24
  AUC(0-t): 233 ± 64.8 µg·h/mL
[2]; male, Sprague-Dawley, rat, plasma, po, fasted male SD rats, single PO dose 200 mg/kg, mean ± SD, read-out: AUC0-t
  AUC(0-t): 236 ± 64.6 µg·h/mL
[2]; male, Sprague-Dawley, rat, plasma, po, fasted male SD rats, single PO dose 200 mg/kg, mean ± SD, read-out: Cmax
  Cmax: 17400 ± 4190 ng/mL
[2]; male, Sprague-Dawley, rat, plasma, po, fasted male SD rats, single PO dose 200 mg/kg, mean ± SD, read-out: Tmax
  Tmax: 5.88 ± 1.55 h

## CCc1cnc(N2CCC(c3nc(COc4ccc(-n5cnnn5)cc4)cs3)CC2)nc1 [esylate salt, 5-ethyl-2-{4-[4-(4-tetrazol-1-yl-phenoxymethyl)-thiazol-2-yl]-piperidin-1-yl}-pyrimidine]
[1]
  Appearance of the material after RH stress: remained a free flowing powder

## CCc1cnc(N2CCC(c3nc(COc4ccc(-n5cnnn5)cc4)cs3)CC2)nc1 [sulfate salt, 5-ethyl-2-{4-[4-(4-tetrazol-1-yl-phenoxymethyl)-thiazol-2-yl]-piperidin-1-yl}-pyrimidine]
[1]
  Appearance of the material after RH stress: turned tacky

## CCc1cnc(N2CCC(c3nc(COc4ccc(-n5cnnn5)cc4)cs3)CC2)nc1.Cl [HCl Salt Form II, 5-ethyl-2-{4-[4-(4-tetrazol-1-yl-phenoxymethyl)-thiazol-2-yl]-piperidin-1-yl}-pyrimidine hydrochloride]
[2]; 0.5 h post dose, fasted male SD rats, PO 200 mg/kg, mean ± SD, hydrochloride
  Mean plasma concentration of MBX-2982: 8060 ± 1610 ng/mL
[2]; 1 h post dose, fasted male SD rats, PO 200 mg/kg, mean ± SD, hydrochloride
  Mean plasma concentration of MBX-2982: 16300 ± 2770 ng/mL
[2]; 2 h post dose, fasted male SD rats, PO 200 mg/kg, mean ± SD, hydrochloride
  Mean plasma concentration of MBX-2982: 23700 ± 4220 ng/mL
[2]; 4 h post dose, fasted male SD rats, PO 200 mg/kg, mean ± SD, hydrochloride
  Mean plasma concentration of MBX-2982: 29200 ± 3710 ng/mL
[2]; 6 h post dose, fasted male SD rats, PO 200 mg/kg, mean ± SD, hydrochloride
  Mean plasma concentration of MBX-2982: 29100 ± 8130 ng/mL
[2]; 9 h post dose, fasted male SD rats, PO 200 mg/kg, mean ± SD, hydrochloride
  Mean plasma concentration of MBX-2982: 23200 ± 5700 ng/mL
[2]; 24 h post dose, fasted male SD rats, PO 200 mg/kg, mean ± SD, hydrochloride
  Mean plasma concentration of MBX-2982: 12020 ± 9330 ng/mL
[2]; 24 h post dose, fasted male SD rats, PO 200 mg/kg, mean ± SD, listed as HCl form II, hydrochloride
  Mean plasma concentration of MBX-2982: 12020 ng/mL
[2]; [10]
  Fold difference in plasma concentration compared to micronized free-base form: 186 fold
  Increase of systemic drug exposure in AUC0-t compared with micro MBX-2982 (free base): 2.9 fold
[2]; 30 h post dose, fasted male SD rats, PO 200 mg/kg, mean ± SD, hydrochloride
  Mean plasma concentration of MBX-2982: 14900 ± 13200 ng/mL
[2]; 30 h post dose, fasted male SD rats, PO 200 mg/kg, mean ± SD, listed as HCl form II, hydrochloride
  Mean plasma concentration of MBX-2982: 14900 ng/mL
[2]; 48 h post dose, fasted male SD rats, PO 200 mg/kg, mean ± SD, hydrochloride
  Mean plasma concentration of MBX-2982: 32.5 ng/mL
[2]; [11]
  AUC0-24: 482 ± 69.4 µg·h/mL
  AUC0-inf: 469 µg·h/mL
  AUC(0-t): 679 ± 208 µg·h/mL
  Cmax: 31800 ± 5050 ng/mL
  Tmax: 11.5 ± 12.4 h
  t1/2: 2.09 h

## CCc1cnc(N2CCC(c3nc(COc4ccc(-n5cnnn5)cc4)cs3)CC2)nc1 [HBr salt, 5-ethyl-2-{4-[4-(4-tetrazol-1-yl-phenoxymethyl)-thiazol-2-yl]-piperidin-1-yl}-pyrimidine]
[1]
  Appearance of the material after RH stress: remained a free flowing powder

## CCc1cnc(N2CCC(c3nc(COc4ccc(-n5cnnn5)cc4)cs3)CC2)nc1 [besylate salt, 5-ethyl-2-{4-[4-(4-tetrazol-1-yl-phenoxymethyl)-thiazol-2-yl]-piperidin-1-yl}-pyrimidine]
[1]
  Appearance of the material after RH stress: remained a free-flowing powder
